According to ChEMBL document CHEMBL1681648, “Synthesis and in vitro antibacterial activity of oxazolidine LBM-415 analogs as peptide deformylase inhibitors” (2011):
≈ marks a conversion by molar mass, not a printed value.

What was measured:
Assay type in all cases: functional
Streptococcus pneumoniae = test: Antimicrobial activity against Streptococcus pneumoniae 31002 after 24 hrs by agar dilution method; details: Streptococcus pneumoniae, 31002, 24 h
Shigella boydii = test: Antimicrobial activity against Shigella boydii 51313 after 24 hrs by agar dilution method; details: Shigella boydii, 51313, 24 h
Staphylococcus aureus = test: Antimicrobial activity against Staphylococcus aureus 26003 after 24 hrs by agar dilution method; details: Staphylococcus aureus, 26003, 24 h
Shigella flexneri = test: Antimicrobial activity against Shigella flexneri 92475 after 24 hrs by agar dilution method; details: Shigella flexneri, 92475, 24 h
[1] = Antimicrobial activity against Streptomyces albus 260101 after 24 hrs by agar dilution method; details: Streptomyces albus, 260101, 24 h

Compound	MIC (Streptococcus pneumoniae) [mg/L]	MIC (Shigella boydii) [mg/L]	MIC (Staphylococcus aureus) [mg/L]	MIC (Shigella flexneri) [mg/L]	MIC [1] [mg/L]
CCCC[C@H](CN(O)C=O)C(=O)N1COC[C@H]1C(=O)Nc1ccc(F)cc1	0.195 (≈ 0.511 µM)	> 6.25	0.39 (≈ 1.02 µM)	> 6.25	0.39 (≈ 1.02 µM)
CCCC[C@H](CN(O)C=O)C(=O)N1COC[C@H]1C(=O)Nc1c(F)cccc1F	0.195 (≈ 0.488 µM)	> 6.25	0.39 (≈ 0.976 µM)	> 6.25	0.39 (≈ 0.976 µM)
CCCC[C@H](CN(O)C=O)C(=O)N1COC[C@H]1C(=O)Nc1ccc(OC)cc1	0.195 (≈ 0.496 µM)	> 6.25	0.39 (≈ 0.991 µM)	> 6.25	0.78 (≈ 1.98 µM)
CCCC[C@H](CN(O)C=O)C(=O)N1COC[C@H]1C(=O)Nc1ccc(N2CCOCC2)cc1	0.39 (≈ 0.87 µM)	6.25 (≈ 13.9 µM)	1.56 (≈ 3.48 µM)	> 6.25	0.78 (≈ 1.74 µM)
CCCC[C@H](CN(O)C=O)C(=O)N1COC[C@H]1C(=O)N[C@@H](C)c1ccccc1	0.195 (≈ 0.498 µM)	> 6.25	1.56 (≈ 3.99 µM)	> 6.25	1.56 (≈ 3.99 µM)
CCCC[C@H](CN(O)C=O)C(=O)N1COC[C@H]1C(=O)NCc1ccccc1	0.78 (≈ 2.07 µM)	> 6.25	0.78 (≈ 2.07 µM)	> 6.25	1.56 (≈ 4.13 µM)
CCCC[C@H](CN(O)C=O)C(=O)N1CO[C@H](C)[C@H]1C(=O)Nc1ccc(F)cc1	0.195 (≈ 0.493 µM)	3.13 (≈ 7.92 µM)	1.56 (≈ 3.95 µM)	> 6.25	0.78 (≈ 1.97 µM)
CCCC[C@H](CN(O)C=O)C(=O)N1CO[C@H](C)[C@H]1C(=O)Nc1ccc(N2CCOCC2)c(F)c1	0.195 (≈ 0.406 µM)	> 6.25	0.78 (≈ 1.62 µM)	> 6.25	1.56 (≈ 3.25 µM)
CCCC[C@H](CN(O)C=O)C(=O)N1CO[C@H](C)[C@H]1C(=O)Nc1ccc(F)cn1	0.39 (≈ 0.984 µM)	3.13 (≈ 7.9 µM)	1.56 (≈ 3.94 µM)	> 6.25	0.39 (≈ 0.984 µM)
CCCC[C@H](CN(O)C=O)C(=O)N1COC[C@H]1C(=O)Nc1ccc(F)c[n+]1[O-]	0.195 (≈ 0.489 µM)	3.13 (≈ 7.86 µM)	0.78 (≈ 1.96 µM)	> 6.25	0.78 (≈ 1.96 µM)
CCCC[C@H](CN(O)C=O)C(=O)N1CO[C@H](C)[C@H]1C(=O)Nc1ccc(F)c[n+]1[O-]	0.195 (≈ 0.473 µM)	> 6.25	1.56 (≈ 3.78 µM)	> 6.25	0.78 (≈ 1.89 µM)
CCCC[C@H](CN(O)C=O)C(=O)N1CCC[C@H]1C(=O)Nc1ccc(F)c[n+]1[O-]	0.195 (≈ 0.492 µM)	6.25 (≈ 15.8 µM)	0.39 (≈ 0.984 µM)	> 6.25	0.39 (≈ 0.984 µM)

Results, then the compound that gave them:

MIC (Streptococcus pneumoniae) [mg/L]	MIC (Shigella boydii) [mg/L]	MIC (Staphylococcus aureus) [mg/L]	MIC (Shigella flexneri) [mg/L]	MIC [1] [mg/L]	Compound
0.195 (≈ 0.537 µM)	> 6.25	0.39 (≈ 1.07 µM)	> 6.25	0.39 (≈ 1.07 µM)	CCCC[C@H](CN(O)C=O)C(=O)N1COC[C@H]1C(=O)Nc1ccccc1
0.195 (≈ 0.517 µM)	> 6.25	0.78 (≈ 2.07 µM)	> 6.25	0.78 (≈ 2.07 µM)	CCCC[C@H](CN(O)C=O)C(=O)N1COC[C@H]1C(=O)Nc1ccc(C)cc1
0.098 (≈ 0.21 µM)	> 6.25	0.78 (≈ 1.67 µM)	> 6.25	0.78 (≈ 1.67 µM)	CCCC[C@H](CN(O)C=O)C(=O)N1COC[C@H]1C(=O)Nc1ccc(N2CCOCC2)c(F)c1
0.098 (≈ 0.203 µM)	6.25 (≈ 12.9 µM)	0.39 (≈ 0.808 µM)	6.25 (≈ 12.9 µM)	0.39 (≈ 0.808 µM)	CCCC[C@H](CN(O)C=O)C(=O)N1COC[C@H]1C(=O)Nc1ccc(N2CCOCC2)c(Cl)c1
0.098 (≈ 0.256 µM)	3.13 (≈ 8.19 µM)	0.78 (≈ 2.04 µM)	3.13 (≈ 8.19 µM)	0.39 (≈ 1.02 µM)	CCCC[C@H](CN(O)C=O)C(=O)N1COC[C@H]1C(=O)Nc1ccc(F)cn1
0.098 (≈ 0.25 µM)	> 6.25	1.56 (≈ 3.99 µM)	> 6.25	0.78 (≈ 1.99 µM)	CCCC[C@H](CN(O)C=O)C(=O)N1CO[C@H](C)[C@H]1C(=O)Nc1ccc(C)cc1
0.098 (≈ 0.197 µM)	> 6.25	0.78 (≈ 1.57 µM)	> 6.25	0.39 (≈ 0.785 µM)	CCCC[C@H](CN(O)C=O)C(=O)N1CO[C@H](C)[C@H]1C(=O)Nc1ccc(N2CCOCC2)c(Cl)c1
